Values quoted from earlier work as cited in patent publication US20220354784A1, “STABLE LATANOPROST COMPOUND OPHTHALMIC COMPOSITIONS” (Somerset Therapeutics LLC, priority 2021, published 2022).

Settings: patients starting on monotherapy

For `CCNC(=O)CCC/C=C\C[C@@H]1[C@@H](/C=C/[C@@H](O)CCc2ccccc2)[C@H](O)C[C@@H]1O` [bimatoprost], the “rate of adjunctive medication use” value is given as 23.2%.
In the case of `CC(C)OC(=O)CCC/C=C\C[C@@H]1[C@@H](CC[C@@H](O)CCc2ccccc2)[C@H](O)C[C@@H]1O` [latanoprost, isopropyl (Z)-7[(1R,2R,3R,5S)3,5-dihydroxy-2-[(3R)-3-hydroxy-5-phenylpentyl]cyclopentyl]-5-heptanoate], the “rate of adjunctive medication use” value is given as 30.2%.
For `CC(C)OC(=O)CCC/C=C\C[C@@H]1[C@@H](/C=C/[C@@H](O)COc2cccc(C(F)(F)F)c2)[C@H](O)C[C@@H]1O` [travoprost], the “rate of adjunctive medication use” value is listed as 22.5%.
